Experimental data from US20250147039A1, “Compounds for complexation of rare earth elements and/or s-, p-, d- block metals, their coordination compounds, peptide conjugates, method of their preparation and use thereof” (USTAV ORGANICKE CHEMIE A BIOCHEMIE AV CR V.V.I., priority 2021, published 2025).

Legend:
Format in all cases: physicochemical
[1] = Formation of 1,5-cz-[M(Lig)] from Lig and M^III ions (metal dependent click-zip) (Charts 4, 5); details: for conversion to 1,5-cz-[M(Lig)], Bi^III: 4% DMSO in MOPS/NaOH buffer pH 7.0, TD728 in 50% i-PrOH; for conversion to 1,5-cz-[M(Lig)], Ga^III / conversion to 1,5-cz-[M(Lig)], In^III / conversion to 1,5-cz-[M(Lig)], Sc^III / conversion to 1,5-cz-[M(Lig)], Y^III: MOPS/NaOH buffer pH 7.0; for conversion to 1,5-cz-[M(Lig)], Sc^III / conversion to 1,5-cz-[M(Lig)], Y^III: TD728, TD827 in 50% i-PrOH; for conversion to 1,5-cz-[M(Lig)], Y^III: TD714 sum of two diastereoisomers
[2] = Formation of 1,5-cz-[M(Lig)] from Lig and M^II ions (metal dependent click-zip) (Charts 6, 7); details: MOPS/NaOH buffer pH 7.0; for conversion to 1,5-cz-[M(Lig)], Ca^II / conversion to 1,5-cz-[M(Lig)], Cd^II / conversion to 1,5-cz-[M(Lig)], Pb^II: TD728 in 50% i-PrOH
[3] = Formation of 1,5-cz-[Lu(Lig)] from Lig (metal dependent click-zip) with various absolute concentrations (Chart 12)
[4] = pH dependent formation of 1,5- and 1,4-cz-Lig isomers from Lig (pH dependent click-zip) (Chart 13)
[5] = A: 1 hour at 80° C., 0.1M HClO4 (pH ~1)
[6] = A: 1 hour at 80° C., 1.0M HClO4 (pH ~0)
[7] = A: 1 hour at 80° C., pH 2.2, 50 mM aq. buffer
[8] = A: 1 hour at 80° C., pH 3.0, 50 mM aq. buffer
[9] = A: 1 hour at 80° C., pH 3.8, 50 mM aq. buffer
[10] = A: 1 hour at 80° C., pH 4.6, 50 mM aq. buffer
[11] = A: 1 hour at 80° C., pH 5.4, 50 mM aq. buffer
[12] = A: 1 hour at 80° C., pH 6.2, 50 mM aq. buffer
[13] = A: 1 hour at 80° C., pH 7.0, 50 mM aq. buffer
[14] = A: 1 hour at 80° C., pH 8.6, 50 mM aq. buffer
[15] = A: 1 hour at 80° C., pH 9.4, 50 mM aq. buffer
[16] = A: 1 hour at 80° C., pH 10.2, 50 mM aq. buffer
[17] = B: 1 day at 80° C., 0.1M HClO4 (pH ~1)
[18] = B: 1 day at 80° C., 1.0M HClO4 (pH ~0)

C#Cc1cccc(CN2CCN(CC(=O)O)CCN(Cc3cc(-c4ccccc4)cc(CN=[N+]=[N-])n3)CCN(CC(=O)O)CC2)n1 [TD647]
conversion to 1,5-cz-[M(Lig)], Bi^III ([1]; 1 week at 80° C.): 73%
conversion to 1,5-cz-[M(Lig)], Ga^III ([1]; 1 week at 80° C.): 0%
conversion to 1,5-cz-[M(Lig)], In^III ([1]; 1 week at 80° C.): 8%
conversion to 1,5-cz-[M(Lig)], Sc^III ([1]; 1 week at 80° C.): 35%
conversion to 1,5-cz-[M(Lig)], Y^III ([1]; 1 week at 80° C.): 93%
conversion to 1,5-cz-[M(Lig)], Bi^III ([1]; 1 hour at 80° C.): 29%
conversion to 1,5-cz-[M(Lig)], Ga^III ([1]; 1 hour at 80° C.): 0%
conversion to 1,5-cz-[M(Lig)], In^III ([1]; 1 hour at 80° C.): 0%
conversion to 1,5-cz-[M(Lig)], Sc^III ([1]; 1 hour at 80° C.): 7%
conversion to 1,5-cz-[M(Lig)], Y^III ([1]; 1 hour at 80° C.): 20%
conversion to 1,5-cz-[M(Lig)], Ba^II ([2]; 1 week at 80° C.): 0%
conversion to 1,5-cz-[M(Lig)], Ni^II ([2]; 1 week at 80° C.): 0%
conversion to 1,5-cz-[M(Lig)], Sr^II ([2]; 1 week at 80° C.): 0%
conversion to 1,5-cz-[M(Lig)], Zn^II ([2]; 1 week at 80° C.): 0%
conversion to 1,5-cz-[M(Lig)], Ca^II ([2]; 1 week at 80° C.): 87%
conversion to 1,5-cz-[M(Lig)], Cd^II ([2]; 1 week at 80° C.): 86%
conversion to 1,5-cz-[M(Lig)], Pb^II ([2]; 1 week at 80° C.): 54%
conversion to 1,5-cz-[M(Lig)], Ba^II ([2]; 1 hour at 80° C.): 0%
conversion to 1,5-cz-[M(Lig)], Ni^II ([2]; 1 hour at 80° C.): 0%
conversion to 1,5-cz-[M(Lig)], Sr^II ([2]; 1 hour at 80° C.): 0%
conversion to 1,5-cz-[M(Lig)], Zn^II ([2]; 1 hour at 80° C.): 0%
conversion to 1,5-cz-[M(Lig)], Ca^II ([2]; 1 hour at 80° C.): 16%
conversion to 1,5-cz-[M(Lig)], Pb^II ([2]; 1 hour at 80° C.): 2%
conversion to 1,5-cz-[M(Lig)], Cd^II ([2]; 1 hour at 80° C., TD714 sum of two diastereoisomers): 64%
conversion to 1,5-cz-[Lu(Lig)] ([3]; A: 1 hour at 80° C., Lig 5.0 × 10^0 mM, Lu^III 7.5 × 10^0 mM): 74%
conversion to 1,5-cz-[Lu(Lig)] ([3]; A: 1 hour at 80° C., Lig 5.0 × 10^1 mM, Lu^III 7.5 × 10^1 mM): 71%
conversion to 1,5-cz-[Lu(Lig)] ([3]; A: 1 hour at 80° C., Lig 5.0 × 10^−1 mM, Lu^III 7.5 × 10^−1 mM): 70%
conversion to 1,5-cz-[Lu(Lig)] ([3]; A: 1 hour at 80° C., Lig 5.0 × 10^−2 mM, Lu^III 7.5 × 10^−2 mM): 60%
conversion to 1,5-cz-[Lu(Lig)] ([3]; A: 1 hour at 80° C., Lig 5.0 × 10^−3 mM, Lu^III 7.5 × 10^−3 mM): 15%
conversion to 1,5-cz-[Lu(Lig)] ([3]; B: 1 day at 80° C., Lig 5.0 × 10^0 mM, Lu^III 7.5 × 10^0 mM): 96%
conversion to 1,5-cz-[Lu(Lig)] ([3]; B: 1 day at 80° C., Lig 5.0 × 10^1 mM, Lu^III 7.5 × 10^1 mM): 84%
conversion to 1,5-cz-[Lu(Lig)] ([3]; B: 1 day at 80° C., Lig 5.0 × 10^−1 mM, Lu^III 7.5 × 10^−1 mM): 97%
conversion to 1,5-cz-[Lu(Lig)] ([3]; B: 1 day at 80° C., Lig 5.0 × 10^−2 mM, Lu^III 7.5 × 10^−2 mM): 96%
conversion to 1,5-cz-[Lu(Lig)] ([3]; B: 1 day at 80° C., Lig 5.0 × 10^−3 mM, Lu^III 7.5 × 10^−3 mM): 59%
conversion to 1,5-cz-[Lu(Lig)] ([3]; C: 1 week at 80° C., Lig 5.0 × 10^0 mM, Lu^III 7.5 × 10^0 mM): 96%
conversion to 1,5-cz-[Lu(Lig)] ([3]; C: 1 week at 80° C., Lig 5.0 × 10^1 mM, Lu^III 7.5 × 10^1 mM): 86%
conversion to 1,5-cz-[Lu(Lig)] ([3]; C: 1 week at 80° C., Lig 5.0 × 10^−1 mM, Lu^III 7.5 × 10^−1 mM): 97%
conversion to 1,5-cz-[Lu(Lig)] ([3]; C: 1 week at 80° C., Lig 5.0 × 10^−2 mM, Lu^III 7.5 × 10^−2 mM): 96%
conversion to 1,5-cz-[Lu(Lig)] ([3]; C: 1 week at 80° C., Lig 5.0 × 10^−3 mM, Lu^III 7.5 × 10^−3 mM): 57%
conversion to 1,4-cz-Lig isomer [4, 5]: 3%
conversion to 1,5-cz-Lig isomer [4, 5]: 44%
conversion to 1,4-cz-Lig isomer [4, 6]: 2%
conversion to 1,5-cz-Lig isomer [4, 6]: 9%
conversion to 1,4-cz-Lig isomer [4, 7]: 2%
conversion to 1,5-cz-Lig isomer [4, 7]: 17%
conversion to 1,4-cz-Lig isomer [4, 8]: 1%
conversion to 1,5-cz-Lig isomer [4, 8]: 6%
conversion to 1,4-cz-Lig isomer [4, 9]: 1%
conversion to 1,5-cz-Lig isomer [4, 9]: 1%
conversion to 1,4-cz-Lig isomer [4, 10]: 1%
conversion to 1,5-cz-Lig isomer [4, 10]: 1%
conversion to 1,4-cz-Lig isomer [4, 11]: 1%
conversion to 1,5-cz-Lig isomer [4, 11]: 1%
conversion to 1,4-cz-Lig isomer [4, 12]: 1%
conversion to 1,5-cz-Lig isomer [4, 12]: 1%
conversion to 1,4-cz-Lig isomer [4, 13]: 2%
conversion to 1,5-cz-Lig isomer [4, 13]: 1%
conversion to 1,4-cz-Lig isomer [4, 14]: 3%
conversion to 1,5-cz-Lig isomer [4, 14]: 2%
conversion to 1,4-cz-Lig isomer [4, 15]: 3%
conversion to 1,5-cz-Lig isomer [4, 15]: 8%
conversion to 1,4-cz-Lig isomer [4, 16]: 2%
conversion to 1,5-cz-Lig isomer [4, 16]: 17%
conversion to 1,4-cz-Lig isomer [4, 17]: 5%
conversion to 1,5-cz-Lig isomer [4, 17]: 91%
conversion to 1,4-cz-Lig isomer [4, 18]: 8%
conversion to 1,5-cz-Lig isomer [4, 18]: 72%
